According to ChEMBL document CHEMBL3885881, “DrugMatrix”:

Species: Rattus norvegicus
Assay: DrugMatrix - Regimen: Daily Repeat
Assay type: toxicity, organism-based, Sprague-Dawley
Parameters: regimen Daily Repeat, gender Male, age 6-8 weeks
Details: in vivo, po, route oral GAVAGE, vehicle 100 % WATER; for ABSOLUTE BASOPHIL / ABSOLUTE EOSINOPHIL / ABSOLUTE LYMPHOCYTE / ABSOLUTE MONOCYTE / ABSOLUTE SEGMENTED NEUTROPHIL / BASOPHIL / EOSINOPHIL / ERYTHROCYTE COUNT / HEMATOCRIT / HEMOGLOBIN / LEUKOCYTE COUNT / LYMPHOCYTE / MEAN CORPUSCULAR HEMOGLOBIN / MEAN CORPUSCULAR HEMOGLOBIN CONCENTRATION / MEAN CORPUSCULAR VOLUME / MONOCYTE / NEUTROPHIL / NUCLEATED RED BLOOD CELLS / PLATELET COUNT: tissue Blood; for ALANINE AMINOTRANSFERASE / ALBUMIN / ALKALINE PHOSPHATASE / ASPARTATE AMINOTRANSFERASE / BLOOD UREA NITROGEN / CARBON DIOXIDE / CHLORIDE / CHOLESTEROL / CREATINE PHOSPHOKINASE / CREATININE / GLUCOSE / LACTATE DEHYDROGENASE / LIPASE / PHOSPHORUS / POTASSIUM / SODIUM / TOTAL BILIRUBIN / TOTAL PROTEIN / URIC ACID: tissue Plasma
[1] = 0 mg/kg, 72 h, dose level Control, time 3 day
[2] = 0 mg/kg, 120 h, dose level Control, time 5 day
[3] = 39 mg/kg, 72 h, dose level Low, time 3 day

C[C@]12Cc3c[nH]nc3C[C@@H]1CC[C@@H]1[C@@H]2CC[C@@]2(C)[C@H]1CC[C@]2(C)O [STANOZOLOL]
ABSOLUTE BASOPHIL [1]: 0 CELLS/uL | ABSOLUTE EOSINOPHIL [1]: 32.5 CELLS/uL | ABSOLUTE LYMPHOCYTE [1]: 9305.83 CELLS/uL | ABSOLUTE MONOCYTE [1]: 43.83 CELLS/uL | ABSOLUTE SEGMENTED NEUTROPHIL [1]: 817.83 CELLS/uL | BASOPHIL [1]: 0% | EOSINOPHIL [1]: 0.33% | ERYTHROCYTE COUNT [1]: 5.38 x10E6/uL | HEMATOCRIT [1]: 33.63% | HEMOGLOBIN [1]: 13.17 G/DL | LEUKOCYTE COUNT [1]: 10.2 x10E3/uL | LYMPHOCYTE [1]: 91.17% | MEAN CORPUSCULAR HEMOGLOBIN [1]: 24.5 pg | MEAN CORPUSCULAR HEMOGLOBIN CONCENTRATION [1]: 39.13 G/DL | MEAN CORPUSCULAR VOLUME [1]: 62.53 fL | MONOCYTE [1]: 0.5% | NEUTROPHIL [1]: 8% | NUCLEATED RED BLOOD CELLS [1]: 0.17 /100WBC | PLATELET COUNT [1]: 858 x10E3/uL | ALANINE AMINOTRANSFERASE [1]: 55.67 u/L | ALBUMIN [1]: 4.07 G/DL | ALKALINE PHOSPHATASE [1]: 337 u/L | ASPARTATE AMINOTRANSFERASE [1]: 84 u/L | BLOOD UREA NITROGEN [1]: 13.17 mg/dL | CARBON DIOXIDE [1]: 34.17 mmol/L | CHLORIDE [1]: 99.33 MEQ/L | CHOLESTEROL [1]: 78.83 mg/dL | CREATINE PHOSPHOKINASE [1]: 576.83 u/L | CREATININE [1]: 0.17 mg/dL | GLUCOSE [1]: 152.67 mg/dL | LACTATE DEHYDROGENASE [1]: 147.83 u/L | LIPASE [1]: 9.5 u/L | PHOSPHORUS [1]: 10.78 mg/dL | POTASSIUM [1]: 6.34 MEQ/L | SODIUM [1]: 144.12 MEQ/L | TOTAL BILIRUBIN [1]: 0.18 mg/dL | TOTAL PROTEIN [1]: 6.08 G/DL | URIC ACID [1]: 0.65 mg/dL | ABSOLUTE BASOPHIL [2]: 0 CELLS/uL | ABSOLUTE EOSINOPHIL [2]: 31.17 CELLS/uL | ABSOLUTE LYMPHOCYTE [2]: 7918.33 CELLS/uL | ABSOLUTE MONOCYTE [2]: 58.33 CELLS/uL | ABSOLUTE SEGMENTED NEUTROPHIL [2]: 725.5 CELLS/uL | BASOPHIL [2]: 0% | EOSINOPHIL [2]: 0.33% | ERYTHROCYTE COUNT [2]: 5.32 x10E6/uL | HEMATOCRIT [2]: 33.53% | HEMOGLOBIN [2]: 13.17 G/DL | LEUKOCYTE COUNT [2]: 8.73 x10E3/uL | LYMPHOCYTE [2]: 90.33% | MEAN CORPUSCULAR HEMOGLOBIN [2]: 24.82 pg | MEAN CORPUSCULAR HEMOGLOBIN CONCENTRATION [2]: 39.33 G/DL | MEAN CORPUSCULAR VOLUME [2]: 63.12 fL | MONOCYTE [2]: 0.67% | NEUTROPHIL [2]: 8.67% | NUCLEATED RED BLOOD CELLS [2]: 0 /100WBC | PLATELET COUNT [2]: 1144.83 x10E3/uL | ALANINE AMINOTRANSFERASE [2]: 60.5 u/L | ALBUMIN [2]: 3.97 G/DL | ALKALINE PHOSPHATASE [2]: 343.17 u/L | ASPARTATE AMINOTRANSFERASE [2]: 80.83 u/L | BLOOD UREA NITROGEN [2]: 15 mg/dL | CARBON DIOXIDE [2]: 31 mmol/L | CHLORIDE [2]: 99.75 MEQ/L | CHOLESTEROL [2]: 71.5 mg/dL | CREATINE PHOSPHOKINASE [2]: 237.17 u/L | CREATININE [2]: 0.17 mg/dL | GLUCOSE [2]: 137 mg/dL | LACTATE DEHYDROGENASE [2]: 146.17 u/L | LIPASE [2]: 11.5 u/L | PHOSPHORUS [2]: 10.13 mg/dL | POTASSIUM [2]: 6 MEQ/L | SODIUM [2]: 145 MEQ/L | TOTAL BILIRUBIN [2]: 0.13 mg/dL | TOTAL PROTEIN [2]: 5.82 G/DL | URIC ACID [2]: 0.62 mg/dL | ABSOLUTE BASOPHIL [3]: 0 CELLS/uL | ABSOLUTE EOSINOPHIL [3]: 60.33 CELLS/uL | ABSOLUTE LYMPHOCYTE [3]: 8653.33 CELLS/uL | ABSOLUTE MONOCYTE [3]: 60.33 CELLS/uL | ABSOLUTE SEGMENTED NEUTROPHIL [3]: 526 CELLS/uL | BASOPHIL [3]: 0% | EOSINOPHIL [3]: 0.67% | ERYTHROCYTE COUNT [3]: 5.9 x10E6/uL | HEMATOCRIT [3]: 35.57% | HEMOGLOBIN [3]: 13.63 G/DL | LEUKOCYTE COUNT [3]: 9.3 x10E3/uL | LYMPHOCYTE [3]: 93.33% | MEAN CORPUSCULAR HEMOGLOBIN [3]: 23.13 pg | MEAN CORPUSCULAR HEMOGLOBIN CONCENTRATION [3]: 38.33 G/DL | MEAN CORPUSCULAR VOLUME [3]: 60.33 fL | MONOCYTE [3]: 0.67% | NEUTROPHIL [3]: 5.33% | NUCLEATED RED BLOOD CELLS [3]: 0 /100WBC | PLATELET COUNT [3]: 1025.67 x10E3/uL | ALANINE AMINOTRANSFERASE [3]: 58 u/L | ALBUMIN [3]: 4.17 G/DL | ALKALINE PHOSPHATASE [3]: 448.33 u/L | ASPARTATE AMINOTRANSFERASE [3]: 81 u/L | BLOOD UREA NITROGEN [3]: 13.67 mg/dL | CARBON DIOXIDE [3]: 34.67 mmol/L | CHLORIDE [3]: 99.33 MEQ/L | CHOLESTEROL [3]: 57.33 mg/dL | CREATINE PHOSPHOKINASE [3]: 465.67 u/L | CREATININE [3]: 0.14 mg/dL | GLUCOSE [3]: 134.67 mg/dL | LACTATE DEHYDROGENASE [3]: 171.33 u/L | LIPASE [3]: 9 u/L | PHOSPHORUS [3]: 11.43 mg/dL | POTASSIUM [3]: 6.05 MEQ/L | SODIUM [3]: 145.03 MEQ/L | TOTAL BILIRUBIN [3]: 0.2 mg/dL | TOTAL PROTEIN [3]: 6.13 G/DL | URIC ACID [3]: 0.6 mg/dL
